Test results reported in patent publication US4943646A, “Gallium complexes and solvent extraction of gallium” (Monsanto Company, priority 1987, dated 1990).
Read-outs that look alike come from different tables or passages of the source. One block for each molecule: values may come before it.

Key:
[1] = Extent of hydrolysis of hydroxamic acids after extraction, washing and stripping, by spectrophotographic analysis; details: for % DECOMPOSITION: additional, less careful determinations (untitled table); for % Decomposition (hydrolysis of hydroxamic acid): after extraction-wash-strip cycle, Table 4
[2] = Percentage of extractant pulled into the aqueous phase by Fe (III) in 0.25M H2SO4; type: physicochemical; details: Fe (III) in 0.25M H2SO4 (pH=0.3), 22 °C
Method: Tests were conducted on a series of hydroxamic acids to determine the percentages of the extractants pulled into an aqueous phase from an organic phase, by Fe (III) in 0.25M H2 SO4 (pH=0.3) at 22° C. The conditions represent a severe test of aqueous solubility since the pH favors FeA^++ formation, where A=hydroxamate anion. […] With regard to hydroxamic acids with n less than 6, a compound with n=4, i.e. N-methyl hexanohydroxamic acid, was approximately 35% pulled into the aqueous phase.

[3] = below 0.01M nitric acid; cited from earlier work
[4] = Organic solubility and viscosity of organic solutions (Table 13); type: physicochemical
Excerpt: The organic solubilities and viscosity characteristics of N-alkylalkanohydroxamic acids, in comparison with N-H hydroxamic acids, are reported in Table 13.

[5] = Analysis of hydroxamic acid remaining after acid stripping (Example 11); type: physicochemical
Excerpt: The organic solutions remaining after the acid stripping were washed with water and the petroleum ether was stripped under vacuum. […] Analysis of the unsubstituted naphthenohydroxamic acid indicated 91% decomposition. This example also indicates the usefulness of diluting the organic phase with a volatile, water immiscible organic solvent to provide more complete stripping of metal. After stripping the extractant is regenerated by distilling off the volatile solvent. Both organic liquids are recycled.

[6] = Hydroxamic acid in the aqueous phase (Example 24); type: physicochemical; details: for HA in aqueous phase: Table 19
Method: A solution was prepared containing 30% by weight N-methyl naphthenohydroxamic acid in kerosene solvent containing 5% by volume isodecanol. A gallium sulfate solution was prepared by mixing 1 ml of an aqueous gallium sulfate solution, 90.8 grams/liter concentration, with 25 ml deionized water. The thus prepared solution was blended with 25 ml of the N-methyl naphtheno hydroxamic acid solution and 800 microliters of 10N NaOH was added from a microburette. […] The gallium had been extracted into the organic solution. The aqueous phase was replaced with an equal volume of 0.1M sodium acetate, which gave a pH 8.21. A 60 microliter amount of 10N NaOH was added, which gave a 9.3 pH after the phases were blended for 20 minutes. […] Additional increments of l0N NaOH were added and gallium concentrations were determined after blending, with results as reported in Table 19. All blending operations were conducted at about 60° C.
The results in Table 19 indicate that the stripping into the aqueous phase is almost negligible at pH below about 11, and in fact the 15 ppm values reported are at about the limit of the analytical method used. […] It appears that efficient extraction can be effected under alkaline conditions ranging from pH 7 to about 11. In the initial result at pH 11.91, a large amount of the hydroxamic acid was stripped into the aqueous phase. However, after an additional amount of isodecanol was added, the phases were easily separated and hydroxamic acid was not found in the aqueous phase. Thus, for pH over about 11.5 it is greatly advantageous to have a coordination solvent such as a long-chain alkanol or other water-insoluble alcohol present in substantial quantity, such as around 20% or more by volume of the organic solvents present. The coordinating solvent modifier assists in phase separation and in avoiding undue loss of the hydroxamic acid to the aqueous stripping solution. Of course stripping the gallium can be accomplished despite significant loss of the hydroxamic acid, and the hydroxamic acid can be recycled with the stripping solution or recovered therefrom.

[7] = Stirred-beaker extraction, 2% H2SO4 wash and 30% H2SO4 strip of gallium from phosphate treater dust leachate (Examples 1-7); details: 5 minutes extraction

Molecule: CCCCCCCCCCc1ccc(C(=O)N(C)O)cc1 [N-methyl 4-decylbenzo HA]
% DECOMPOSITION [1]: 38.6%

Molecule: CCCCCCCC(=O)NO [caprylhydroxamic acid]
hydrolysis [3]: hydrolysis occurs rather slowly

Molecule: N-methyl isostearohydroxamic acid
VISCOSITY ORGANIC SOL. ([4]; Table 13): V. Low
solubility in KEROSENE ([4]; Table 13): V. Soluble (V. Soluble = dissolves in molar quantities (>1) (V = very))
solubility in KEROSENE WITH ISODECANOL ([4]; Table 13): V. Soluble (V. Soluble = dissolves in molar quantities (>1) (V = very))

Molecule: N-methylnaphthenohydroxamic acid
% Decomposition (hydrolysis of hydroxamic acid) (extraction-wash-strip cycle): +0.14%
% DECOMPOSITION (used extractant solutions): 4.99%
extractant concentration after stripping (original 1M) ([5]; possibly mechanical losses and some dilution): 0.8744 M
VISCOSITY ORGANIC SOL. [4]: Medium
HA in aqueous phase ([6]; b715 pH 10.57, b719 after adding 10 ml isodecanol): negative
HA in aqueous phase ([6]; pH 11.91): 0.65 M
test for hydroxamic acid in aqueous phase ([6]; pH 8.26): negative

Molecule: N-methylneodecanohydroxamic acid
% DECOMPOSITION [1]: 0.13%

Molecule: neodecanohydroxamic acid
Ga remaining in aqueous phase [7]: 3 ppm

Molecule: neotridecanohydroxamic acid
VISCOSITY ORGANIC SOL. ([4]; Table 13): High
solubility in KEROSENE ([4]; Table 13): Soluble
solubility in KEROSENE WITH ISODECANOL ([4]; Table 13): Soluble

Further lines, results first:

extractant pulled into the aqueous phase [2]: approximately 35%
Molecule: CCCCCC(=O)N(C)O [N-methyl hexanohydroxamic acid]

% DECOMPOSITION [1]: 1.0%
% Decomposition (hydrolysis of hydroxamic acid) [1]: -0.53%
Molecule: N-ethylnaphthenohydroxamic acid

% DECOMPOSITION [1]: 4.6%
% Decomposition (hydrolysis of hydroxamic acid) [1]: +0.74%
Molecule: N-n-propylnaphthenohydroxamic acid

Ga remaining in aqueous phase [7]: 3.6 ppm
decomposition ([5]; after acid stripping): 91%
VISCOSITY ORGANIC SOL. ([4]; Table 13): High
solubility in KEROSENE ([4]; Table 13): Low
solubility in KEROSENE WITH ISODECANOL ([4]; Table 13): Low
% DECOMPOSITION [1]: 42.5%
% Decomposition (hydrolysis of hydroxamic acid) [1]: 45%
% Decomposition (hydrolysis of hydroxamic acid) ([1]; listed as N--H naphthenohydroxamic acid): 45.0%
% Decomposition (hydrolysis of hydroxamic acid) ([1]; listed as unsubstituted hydroxamic acid): 45%
Molecule: naphthenohydroxamic acid [reference compound]
